Test results from patent publication US9907791B2, “Ron inhibitors for use in preventing and treating bone loss” (UNIVERSITY OF UTAH RESEARCH FOUNDATION, priority 2014, dated 2018).

Experiments:
AKT = test: Western blot of osteoclast lysates, phospho-AKT; type: cell-based, mice; details: osteoclasts
Procedure: (§1) Cells were serum starved (0.5% FBS) for 3 hours prior to lysate collection. Inhibitors were added 1 hour prior to lysis and MSP was added 15 min prior to lysis when indicated. Cells were washed with 1×PBS and harvested in lysis buffer (25 mM Tris-HCl, pH 7.5, 0.42 M NaCl, 1.5 mM MgCl2, 0.5 mM EDTA, 1 mM DTT, 25% sucrose, and 0.1% Triton X-100) plus 100× protease arrest (Bioscience, Bozeman, Mont.) and 100× orthovanadate. Primary antibodies used for immunoblotting include: anti-MSP (Santa Cruz, sc-6090, Dallas, Tex.) at a 1:250 dilution, anti-pan Akt (Cell Signaling, #4691S, Beverly, Mass.) at a 1:1000 dilution, anti-pan Erk (Cell Signaling, #4695, Beverly, Mass.) at a 1:1000 dilution, anti-phospho Akt (Cell Signaling, #9271 L, Beverly, Mass.) at a 1:500 dilution, anti-phospho Erk (Cell Signaling, #4370S, Beverly, Mass.) at a 1:500 dilution, anti-Src (Cell Signaling, #2110, Beverly, Mass.) at a 1:500 dilution, and anti-phospho Src (Y416) (Cell Signaling, #2113, Beverly, Mass.) at a 1:500 dilution. The secondary antibodies used were HRP-conjugated anti-goat IgG (Santa Cruz, Dallas, Tex.) and anti-rabbit IgG (Santa Cruz, Dallas, Tex.). Chemiluminescent signals were detected using Immun-Star HRP (BioRad, Hercules, Calif.).

bone marrow osteoclasts = test: Osteoclast resorption assay; type: cell-based, mice; details: WT osteoclasts, inhibitors 10 μM or muRANK-Fc 10 μg/mL daily day 9 to 12
Procedure: Bone marrow osteoclasts were generated from 6 to 8 week old WT and RonTK−/− mice. Briefly, bone marrow was isolated from hindlimb bones and plated in α-MEM media containing 10% heat-inactivated fetal bovine serum (FBS, Sigma, St. Louis, Mo.), 100 units/mL penicillin-streptomycin (Hyclone), and 33 ng/mL human macrophage colony-stimulating factor (hM-CSF) (PeproTech, Rocky Hill, N.J.) for 24 hours. Non-adherent cells were collected and frozen for later use. To assess resorption activity, bone marrow precursor cells were thawed and seeded at a density of 1×10^5 cells per well in BioCoat Osteologic slides (BD Biosciences, San Jose, Calif.) in α-MEM media containing 10% FBS and antibiotics. After adhering overnight, media was removed and media containing 33 ng/mL hM-CSF and 9 ng/mL muRANKL (R & D systems, Minneapolis, Minn.) was added. The medium was changed every 3 days depending on acidification, and the assay was terminated as indicated. Recombinant human MSP was prepared and added daily as indicated. Cells were removed with 6% bleach and slides were viewed microscopically using phase-contrast with 20× magnification. Osteolytic resorption area within 5 representative fields was determined using Image J software, experiments were performed in triplicate. […]

RON = RON (Homo sapiens, UniProt Q04912); details: from the cited IC50 values; cited from earlier work
Chain of RON (Q04912 25-1400): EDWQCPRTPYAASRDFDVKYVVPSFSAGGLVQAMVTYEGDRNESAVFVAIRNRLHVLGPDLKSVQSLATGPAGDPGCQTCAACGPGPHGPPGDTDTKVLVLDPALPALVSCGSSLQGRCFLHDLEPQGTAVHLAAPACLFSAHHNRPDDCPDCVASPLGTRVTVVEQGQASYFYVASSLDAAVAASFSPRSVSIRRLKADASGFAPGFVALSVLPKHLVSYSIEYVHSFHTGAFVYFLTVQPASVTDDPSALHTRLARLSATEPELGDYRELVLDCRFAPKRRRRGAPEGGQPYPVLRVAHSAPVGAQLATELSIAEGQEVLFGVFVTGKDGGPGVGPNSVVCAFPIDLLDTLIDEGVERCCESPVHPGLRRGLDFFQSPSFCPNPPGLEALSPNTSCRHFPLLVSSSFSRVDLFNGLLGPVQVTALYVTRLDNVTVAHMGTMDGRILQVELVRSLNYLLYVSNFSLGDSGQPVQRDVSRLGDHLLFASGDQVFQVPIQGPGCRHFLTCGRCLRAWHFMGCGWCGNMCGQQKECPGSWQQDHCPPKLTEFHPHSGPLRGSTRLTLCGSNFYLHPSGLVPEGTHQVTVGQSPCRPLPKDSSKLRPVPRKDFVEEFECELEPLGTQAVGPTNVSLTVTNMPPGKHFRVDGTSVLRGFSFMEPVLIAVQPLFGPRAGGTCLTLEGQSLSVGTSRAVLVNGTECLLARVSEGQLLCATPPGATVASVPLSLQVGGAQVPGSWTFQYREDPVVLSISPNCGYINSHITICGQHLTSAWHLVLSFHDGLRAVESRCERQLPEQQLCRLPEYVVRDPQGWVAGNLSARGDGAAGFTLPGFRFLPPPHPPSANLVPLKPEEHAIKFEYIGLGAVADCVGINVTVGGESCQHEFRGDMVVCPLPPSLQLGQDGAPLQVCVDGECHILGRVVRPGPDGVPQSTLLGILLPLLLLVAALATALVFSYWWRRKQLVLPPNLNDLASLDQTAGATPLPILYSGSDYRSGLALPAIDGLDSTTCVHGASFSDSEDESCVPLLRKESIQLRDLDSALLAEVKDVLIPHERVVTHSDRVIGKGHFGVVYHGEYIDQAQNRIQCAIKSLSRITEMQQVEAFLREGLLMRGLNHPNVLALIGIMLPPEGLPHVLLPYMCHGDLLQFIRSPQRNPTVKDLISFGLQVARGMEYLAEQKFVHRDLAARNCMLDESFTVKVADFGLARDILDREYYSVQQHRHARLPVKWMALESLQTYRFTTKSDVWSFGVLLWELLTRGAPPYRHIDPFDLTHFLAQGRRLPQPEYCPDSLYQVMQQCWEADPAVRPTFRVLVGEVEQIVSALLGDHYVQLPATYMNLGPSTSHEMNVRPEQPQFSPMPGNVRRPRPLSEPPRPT

c-Src = test: Western blot of osteoclast lysates, phospho-Src; type: cell-based, mice; details: WT osteoclasts with MSP
Procedure: as §1

With `CCOc1ccn(-c2ccc(F)cc2)c(=O)c1C(=O)Nc1ccc(Oc2ccnc(N)c2Cl)c(F)c1` [ASLAN002] as the molecule, how does the “phosphorylated AKT” value (AKT) read?
The value was “decrease in phosphorylated AKT”.

What about the “MSP-induced increase in osteoclast resorption (resorption area)” value (bone marrow osteoclasts) of the same molecule?
The value was “dramatically reduced”.

What about the “selectivity between RON and Met” value (RON) of the same molecule?
The value was “more selective for RON”.

And the “MSP-increased Src phosphorylation” value (c-Src)?
The value was “blocked”.
